Among the data in ChEMBL document CHEMBL5131508, “Photoactivatable o-Hydroxycinnamic Platforms for Bioimaging and Therapeutic Release” (J Med Chem, 2022) are degraded and solubility values, retold here.

Data set [1] in a line: Stability of compound assessed as compound degradation under dark condition measured after 20 days by 1H-NMR analysis. It is filed as physicochemical. The following applies: time 20 day; read-out: Drug degradation.
The nature of data set [2]: Solubility of compound in acetonitrile/water. Format: physicochemical.

Regarding `C=CCCCCCCCCOC(=O)/C=C/c1cccc(C(C)(C)C)c1O`, the degraded at 480 h in data set [1] was 6%. The solubility result in data set [2] is on record as “Soluble”.
